US8557737B2, “Methods of altering poppy characteristics” (priority 2005, dated 2013)

Key:
Format in all cases: in vivo, Papaver somniferum
poppy crops [1] = test: Example 18: field trial, triasulfuron, mesosulfuron-methyl and metsulfuron-methyl at row cover, mid run-up and early hook, morphine crop; details: MRU and LRU; for PLANT HEIGHT: 5 weeks after last application; for LODGING: at capsule harvest
Procedure: (§1) All trials were conducted on poppy crops. Seed was treated with Thiram (5.6 g of Thiram 800/kg seed) and Apron (4 g/kg) and sown at a rate of approximately 750 g/ha. Fertilisers were applied at sowing. Most commonly, either 50:50 lime:superphosphate/triple superphosphate at 125 kg/ha, or lime:superphosphate at 250 kg/ha, were mixed with seed and drilled at a depth of 15 mm. In the same operation, NPK (nitrogen:phosphorus:potassium), at various rates, was banded 75 mm below the seed, unless otherwise stated. All crops were subjected to herbicide sprays for weed control, fungicide sprays for disease control, insecticide sprays if appropriate and were irrigated as required.
(§2) All spray applications were made with a precision sprayer, using Silvan Lurmark flat-fan, low-drift nozzles (LD110-0015). Spray equipment was calibrated to deliver 153 L water/ha.
(§3) At harvest, a 2 m×4 m quadrat was placed in each plot (3 m×6 m, unless otherwise stated) and capsules hand-picked from this area. Capsules were broken up, seed and capsule material separated and weighed. Capsule moisture readings were taken with a moisture meter. Alkaloid yield data were calculated on Pesticide Research Manager (version 5 for Windows) using the formulae below. Briefly, capsule weight was adjusted for moisture to a dry weight, 5% of seed weight was added to this (this amount of capsule material regularly occurs in seed samples after processing) to give a capsule weight per plot. Seed weight was adjusted to 95% of crude weight. Straw weights were determined by multiplying dry capsule weight by 1.3 (estimated amount of stem material in a commercial harvest) and adjusted to 11% moisture. When Lontrel was applied to crops exact capsule and seed weight data were entered. Analyses of variance and a Multiple Range Test were performed on data using Pesticide Research Manager.
Trial to evaluate applications of triasulfuron, mesosulfuron-methyl and metsulfuron-methyl, in a morphine crop. […] Plant heights were measured 5 weeks after last application and lodging at capsule harvest.

poppy crops [2] = test: Example 17: field trial, triasulfuron, mesosulfuron-methyl and metsulfuron-methyl at early run-up and mid-late run-up, morphine crop; details: for PLANT HEIGHT: 6 weeks after last application; for LODGING: at capsule harvest
Procedure: as §1, §2, §3
Trial to evaluate applications of triasulfuron, mesosulfuron-methyl and metsulfuron-methyl, in a morphine crop. Treatment sprays were applied to with crop at early run-up and mid-late run-up, respectively. Plant heights were measured on 6 weeks after last application and lodging was assessed at capsule harvest.

poppy crops [3] = test: Example 16: field trial, metsulfuron-methyl, mesosulfuron-methyl and triasulfuron at row cover and ground cover/early run-up, morphine crop; details: for PLANT HEIGHT: 5 weeks after last application
Procedure: as §1, §2, §3
Trial to evaluate applications of metsulfuron-methyl (Compound 1), mesosulfuron-methyl (Compound 2) and triasulfuron (Compound 3), in a morphine crop. Treatment sprays were applied to crop at row cover and ground cover/early run-up, respectively. Plant heights were assessed 5 weeks after last application and lodging was assessed at capsule harvest.

poppy crops [4] = test: Example 10: field trial, triasulfuron and metsulfuron-methyl, morphine crop
Procedure: as §1, §2
as §3, with “Manager. Significant differences (P=0.05) between treatments are denoted by different lower case letters adjacent to treatment means in the tables of results.” for “Manager.”
[…] Treatment sprays were applied to crop at ground cover, mid run-up and bud-emergence, respectively.

[5] = Trt 3: COMPOUND 3 75 MG/HA + PULSE .2% V/V at RC
[6] = Trt 4: COMPOUND 3 150 MG/HA + PULSE .2% V/V at RC
[7] = Trt 3: COMPOUND 3 75 MG/HA + PULSE .2% V/V at ERU and M-LRU
[8] = Trt 4: COMPOUND 3 150 MG/HA + PULSE .2% V/V at ERU and M-LRU
[9] = Trt 3: COMPOUND 3 75 MG/HA + PULSE .2% V/V at RC and GC/ERU
[10] = Trt 4: COMPOUND 3 150 MG/HA + PULSE .2% V/V at RC and GC/ERU
[11] = COMPOUND 3 263 MG/HA + PULSE .2 % V/V at GC and RU
[12] = COMPOUND 3 525 MG/HA + PULSE .2 % V/V at GC (one application)
[13] = COMPOUND 3 525 MG/HA + PULSE .2 % V/V at GC and RU

## COc1nc(C)nc(NC(=O)NS(=O)(=O)c2ccccc2OCCCl)n1 [Compound 3, triasulfuron]
Poppy crops [1]; [5]
  CAPS/SEED RATIO: 1.358 b
  CROP WEIGHT: 3.43 a t/ha
  MORPHINE: 51.88 a kg/ha
  SEED: 1161 b kg/ha
  STRAW: 2217 a kg/ha
  STRAW MORPHINE: 2.33 a %
  PLANT HEIGHT: 93.0 c cm
  LODGING: 2.2 a %
Poppy crops [1]; [6]
  CAPS/SEED RATIO: 2.664 a
  CROP WEIGHT: 2.32 c t/ha
  MORPHINE: 37.62 c kg/ha
  SEED: 482 c kg/ha
  STRAW: 1797 b kg/ha
  STRAW MORPHINE: 2.09 c %
  PLANT HEIGHT: 81.4 cm·days
  LODGING: 2.6 a %
Poppy crops [2]; [7]
  CAPS/SEED RATIO: 3.677 c
  CROP WEIGHT: 2.79 b t/ha
  MORPHINE: 51.94 a kg/ha
  SEED: 451 b kg/ha
  STRAW: 2299 a kg/ha
  STRAW MORPHINE: 2.26 b %
  PLANT HEIGHT: 100.2 bc cm
  LODGING: 1.6 b %
Poppy crops [2]; [8]
  CAPS/SEED RATIO: 6.016 b
  CROP WEIGHT: 1.71 c t/ha
  MORPHINE: 25.78 c kg/ha
  SEED: 175 c kg/ha
  STRAW: 1331 c kg/ha
  STRAW MORPHINE: 1.93 d %
  PLANT HEIGHT: 90.4 cm·days
  LODGING: 11.9 a %
Poppy crops [3]; [9]
  CAPS/SEED RATIO: 1.259 b
  CROP WEIGHT: 3.47 b t/ha
  MORPHINE: 49.16 a kg/ha
  SEED: 1233 c kg/ha
  STRAW: 2211 a kg/ha
  STRAW MORPHINE: 2.21 a %
  PLANT HEIGHT: 103.4 b cm
Poppy crops [3]; [10]
  CAPS/SEED RATIO: 1.959 a
  CROP WEIGHT: 2.18 c t/ha
  MORPHINE: 32.34 c kg/ha
  SEED: 581 d kg/ha
  STRAW: 1589 c kg/ha
  STRAW MORPHINE: 2.03 b %
  PLANT HEIGHT: 88.6 c cm
Poppy crops [4]; [11]
  CAPSULE/SEED RATIO: 3.170 b
  CROP WEIGHT: 0.79 d t/ha
  HEIGHT: 71.0 cm·days
  MORPHINE: 13.17 d kg/ha
  SEED: 141 c kg/ha
  STRAW: 644 d kg/ha
  STRAW MORPHINE: 2.03 b %
Poppy crops [4]; [12]
  CAPSULE/SEED RATIO: 1.762 c
  CROP WEIGHT: 1.40 c t/ha
  HEIGHT: 75.6 c cm
  MORPHINE: 20.55 b kg/ha
  SEED: 408 b kg/ha
  STRAW: 992 b kg/ha
  STRAW MORPHINE: 2.06 b %
Poppy crops [4]; [13]
  CAPSULE/SEED RATIO: 1.338 days
  CROP WEIGHT: 0.17 e t/ha
  HEIGHT: 55.0 e cm
  MORPHINE: 1.99 e kg/ha
  SEED: 60 c kg/ha
  STRAW: 113 e kg/ha
  STRAW MORPHINE: 1.76 c %
